Key:
Acetylcholinesterase = Acetylcholinesterase (Homo sapiens, UniProt P22303); assay type: functional
Adenosine receptor A3 = target: T1, Adenosine receptor A3 (Homo sapiens, UniProt P0DMS8)
T1 sequence (P0DMS8 whole entry): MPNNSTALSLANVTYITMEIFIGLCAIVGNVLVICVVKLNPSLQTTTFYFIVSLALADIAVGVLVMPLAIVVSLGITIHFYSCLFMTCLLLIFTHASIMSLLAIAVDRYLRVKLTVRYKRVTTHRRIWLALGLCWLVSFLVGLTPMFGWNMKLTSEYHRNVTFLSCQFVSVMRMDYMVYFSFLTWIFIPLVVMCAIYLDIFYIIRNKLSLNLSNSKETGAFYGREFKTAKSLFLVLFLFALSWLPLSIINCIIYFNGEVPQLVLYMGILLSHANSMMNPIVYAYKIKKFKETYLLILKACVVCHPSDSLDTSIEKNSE

[1] = target: T2, Alpha-1A adrenergic receptor (Homo sapiens, UniProt P35348); assay type: functional, cell-based
T2 sequence (P35348 whole entry): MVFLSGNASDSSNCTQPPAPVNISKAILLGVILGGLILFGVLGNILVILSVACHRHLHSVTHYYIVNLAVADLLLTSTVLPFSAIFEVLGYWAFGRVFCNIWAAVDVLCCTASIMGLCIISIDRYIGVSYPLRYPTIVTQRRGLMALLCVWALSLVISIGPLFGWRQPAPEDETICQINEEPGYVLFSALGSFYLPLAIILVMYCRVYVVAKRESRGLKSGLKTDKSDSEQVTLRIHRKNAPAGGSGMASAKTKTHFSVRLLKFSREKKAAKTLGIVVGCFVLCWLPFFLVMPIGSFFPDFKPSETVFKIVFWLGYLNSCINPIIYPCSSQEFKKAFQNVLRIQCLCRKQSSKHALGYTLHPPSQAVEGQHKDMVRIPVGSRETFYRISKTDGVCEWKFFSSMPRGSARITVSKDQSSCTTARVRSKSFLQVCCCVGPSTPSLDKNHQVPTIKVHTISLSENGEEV

[2] = target: T2, Alpha-1A adrenergic receptor; assay type: functional, cell-based; remark: listed apart in the source
[3] = target: T3, Alpha-2A adrenergic receptor (Homo sapiens, UniProt P08913)
T3 sequence (P08913 whole entry): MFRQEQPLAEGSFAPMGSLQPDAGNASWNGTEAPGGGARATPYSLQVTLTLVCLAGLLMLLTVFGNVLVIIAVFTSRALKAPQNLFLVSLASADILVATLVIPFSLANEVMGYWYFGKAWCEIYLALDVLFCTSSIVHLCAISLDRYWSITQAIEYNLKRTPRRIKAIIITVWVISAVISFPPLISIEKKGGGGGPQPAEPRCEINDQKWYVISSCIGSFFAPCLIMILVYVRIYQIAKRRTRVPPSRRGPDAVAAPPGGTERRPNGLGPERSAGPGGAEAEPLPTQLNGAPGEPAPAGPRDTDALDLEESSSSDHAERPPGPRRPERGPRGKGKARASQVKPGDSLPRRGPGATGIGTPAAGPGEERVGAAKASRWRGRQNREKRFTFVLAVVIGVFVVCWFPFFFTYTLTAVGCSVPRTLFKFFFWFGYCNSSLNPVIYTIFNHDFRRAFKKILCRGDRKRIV

D(1A) dopamine receptor = D(1A) dopamine receptor (Homo sapiens, UniProt P21728)
D(3) dopamine receptor = D(3) dopamine receptor (Homo sapiens, UniProt P35462)
Chain of D(3) dopamine receptor (P35462 whole entry): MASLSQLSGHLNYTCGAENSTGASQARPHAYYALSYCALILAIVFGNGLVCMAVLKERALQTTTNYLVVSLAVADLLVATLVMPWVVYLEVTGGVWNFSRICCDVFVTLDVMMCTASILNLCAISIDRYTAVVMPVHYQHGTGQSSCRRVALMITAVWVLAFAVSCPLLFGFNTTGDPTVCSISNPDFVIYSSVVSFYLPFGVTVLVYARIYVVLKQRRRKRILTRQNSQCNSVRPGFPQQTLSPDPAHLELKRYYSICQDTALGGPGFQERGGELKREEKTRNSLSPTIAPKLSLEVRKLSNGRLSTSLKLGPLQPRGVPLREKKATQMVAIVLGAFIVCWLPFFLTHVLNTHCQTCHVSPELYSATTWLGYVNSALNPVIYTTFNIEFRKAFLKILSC

Prothrombin = Prothrombin (Homo sapiens, UniProt P00734); assay type: functional
Histamine H3 receptor = Histamine H3 receptor (Homo sapiens, UniProt Q9Y5N1)
Chain of Histamine H3 receptor (Q9Y5N1 whole entry): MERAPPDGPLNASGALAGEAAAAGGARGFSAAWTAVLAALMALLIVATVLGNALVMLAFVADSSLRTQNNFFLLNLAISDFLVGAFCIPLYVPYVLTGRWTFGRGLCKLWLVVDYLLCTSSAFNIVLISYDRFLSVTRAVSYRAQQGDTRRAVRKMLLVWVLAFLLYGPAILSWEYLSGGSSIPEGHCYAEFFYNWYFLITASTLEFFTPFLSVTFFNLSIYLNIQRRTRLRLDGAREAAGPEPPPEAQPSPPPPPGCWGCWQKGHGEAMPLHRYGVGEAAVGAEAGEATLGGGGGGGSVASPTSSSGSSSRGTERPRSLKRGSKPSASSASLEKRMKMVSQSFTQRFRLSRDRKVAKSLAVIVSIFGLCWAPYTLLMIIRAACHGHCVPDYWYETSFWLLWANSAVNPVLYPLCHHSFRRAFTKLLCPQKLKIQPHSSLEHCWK

[4] = target: 5-hydroxytryptamine receptor 2B (Homo sapiens, UniProt P41595); assay type: functional, cell-based
Chain of 5-hydroxytryptamine receptor 2B (P41595 whole entry): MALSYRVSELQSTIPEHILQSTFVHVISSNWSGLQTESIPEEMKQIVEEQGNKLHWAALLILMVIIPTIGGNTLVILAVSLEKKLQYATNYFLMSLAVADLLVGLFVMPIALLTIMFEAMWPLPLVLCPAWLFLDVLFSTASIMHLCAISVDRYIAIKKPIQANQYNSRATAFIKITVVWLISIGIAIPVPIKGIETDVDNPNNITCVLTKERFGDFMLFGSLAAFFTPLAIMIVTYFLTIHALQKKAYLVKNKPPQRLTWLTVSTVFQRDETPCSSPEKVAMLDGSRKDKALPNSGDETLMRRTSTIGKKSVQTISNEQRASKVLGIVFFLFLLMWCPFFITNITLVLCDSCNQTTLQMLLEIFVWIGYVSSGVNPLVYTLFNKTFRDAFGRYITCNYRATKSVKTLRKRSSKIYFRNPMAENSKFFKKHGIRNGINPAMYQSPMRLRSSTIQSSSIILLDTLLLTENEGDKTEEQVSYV

[5] = target: Vascular endothelial growth factor receptor 2 (Homo sapiens, UniProt P35968); assay type: functional
Chain of Vascular endothelial growth factor receptor 2 (P35968 whole entry): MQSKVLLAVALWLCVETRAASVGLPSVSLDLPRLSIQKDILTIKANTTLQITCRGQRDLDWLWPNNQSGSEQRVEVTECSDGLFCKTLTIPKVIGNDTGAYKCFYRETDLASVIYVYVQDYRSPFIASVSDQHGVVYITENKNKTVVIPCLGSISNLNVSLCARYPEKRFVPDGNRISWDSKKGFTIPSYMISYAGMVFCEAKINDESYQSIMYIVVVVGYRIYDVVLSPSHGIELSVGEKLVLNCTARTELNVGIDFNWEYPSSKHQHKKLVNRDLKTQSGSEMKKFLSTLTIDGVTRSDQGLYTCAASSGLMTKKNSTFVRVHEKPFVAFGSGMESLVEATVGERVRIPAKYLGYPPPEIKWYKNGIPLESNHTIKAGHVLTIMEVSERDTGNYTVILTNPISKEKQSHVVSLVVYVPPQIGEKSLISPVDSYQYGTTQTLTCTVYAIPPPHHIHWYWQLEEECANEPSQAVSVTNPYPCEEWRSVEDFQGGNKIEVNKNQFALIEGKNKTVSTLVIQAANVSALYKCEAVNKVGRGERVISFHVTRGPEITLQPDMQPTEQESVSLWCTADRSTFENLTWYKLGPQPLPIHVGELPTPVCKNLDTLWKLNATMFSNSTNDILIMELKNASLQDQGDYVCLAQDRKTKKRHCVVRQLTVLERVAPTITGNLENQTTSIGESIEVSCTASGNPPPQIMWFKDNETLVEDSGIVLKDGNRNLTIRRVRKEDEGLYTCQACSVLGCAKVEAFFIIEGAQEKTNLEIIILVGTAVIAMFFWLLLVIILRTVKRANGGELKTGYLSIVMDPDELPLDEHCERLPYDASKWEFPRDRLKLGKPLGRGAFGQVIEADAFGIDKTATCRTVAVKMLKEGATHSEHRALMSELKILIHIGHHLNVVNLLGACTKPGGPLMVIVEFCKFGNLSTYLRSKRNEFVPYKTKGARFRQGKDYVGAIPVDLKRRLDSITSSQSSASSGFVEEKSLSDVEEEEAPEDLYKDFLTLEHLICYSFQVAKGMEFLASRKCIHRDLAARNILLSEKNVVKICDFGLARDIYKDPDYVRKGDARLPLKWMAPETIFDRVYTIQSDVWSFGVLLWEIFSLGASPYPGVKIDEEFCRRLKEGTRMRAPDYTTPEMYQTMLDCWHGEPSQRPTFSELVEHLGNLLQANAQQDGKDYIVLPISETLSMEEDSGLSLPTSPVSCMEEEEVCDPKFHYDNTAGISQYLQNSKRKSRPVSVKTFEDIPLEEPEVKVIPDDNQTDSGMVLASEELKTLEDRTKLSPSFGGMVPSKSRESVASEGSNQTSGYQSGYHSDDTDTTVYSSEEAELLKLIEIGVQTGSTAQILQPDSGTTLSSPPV

Mu-type opioid receptor = Mu-type opioid receptor (Homo sapiens, UniProt P35372)
[6] = target: cGMP-inhibited 3',5'-cyclic phosphodiesterase 3A (Homo sapiens, UniProt Q14432); assay type: functional
Chain of cGMP-inhibited 3',5'-cyclic phosphodiesterase 3A (Q14432 whole entry): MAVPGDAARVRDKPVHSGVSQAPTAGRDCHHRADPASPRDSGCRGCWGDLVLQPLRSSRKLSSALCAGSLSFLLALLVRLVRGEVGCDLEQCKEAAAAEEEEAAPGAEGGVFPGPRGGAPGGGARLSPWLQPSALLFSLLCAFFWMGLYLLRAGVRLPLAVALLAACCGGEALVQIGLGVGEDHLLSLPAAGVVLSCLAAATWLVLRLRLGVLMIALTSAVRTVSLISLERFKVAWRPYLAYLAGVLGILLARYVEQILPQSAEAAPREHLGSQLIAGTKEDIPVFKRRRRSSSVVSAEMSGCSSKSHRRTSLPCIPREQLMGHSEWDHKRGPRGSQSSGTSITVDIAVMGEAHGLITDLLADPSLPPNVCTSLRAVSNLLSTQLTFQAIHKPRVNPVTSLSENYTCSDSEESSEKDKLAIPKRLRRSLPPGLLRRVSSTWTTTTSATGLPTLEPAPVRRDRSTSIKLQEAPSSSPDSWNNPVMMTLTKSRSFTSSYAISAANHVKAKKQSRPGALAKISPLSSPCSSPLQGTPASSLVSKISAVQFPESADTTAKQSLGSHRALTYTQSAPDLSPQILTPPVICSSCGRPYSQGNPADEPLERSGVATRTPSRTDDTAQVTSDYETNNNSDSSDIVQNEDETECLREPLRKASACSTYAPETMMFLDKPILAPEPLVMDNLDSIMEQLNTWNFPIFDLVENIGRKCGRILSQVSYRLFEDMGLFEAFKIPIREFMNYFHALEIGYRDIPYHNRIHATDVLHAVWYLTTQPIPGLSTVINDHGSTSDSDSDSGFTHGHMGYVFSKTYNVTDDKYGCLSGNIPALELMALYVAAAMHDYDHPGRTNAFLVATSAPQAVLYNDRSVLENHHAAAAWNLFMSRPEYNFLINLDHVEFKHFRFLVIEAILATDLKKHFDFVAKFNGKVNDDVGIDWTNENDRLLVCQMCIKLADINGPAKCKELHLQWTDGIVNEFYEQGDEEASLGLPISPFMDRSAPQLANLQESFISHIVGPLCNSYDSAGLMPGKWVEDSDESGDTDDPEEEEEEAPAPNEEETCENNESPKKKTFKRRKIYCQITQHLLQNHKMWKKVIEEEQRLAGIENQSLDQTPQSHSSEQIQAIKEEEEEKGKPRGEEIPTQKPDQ

[7] = target: 3',5'-cyclic-AMP phosphodiesterase 4A (Homo sapiens, UniProt P27815); assay type: functional
[8] = target: T4, Prostaglandin G/H synthase 1 (Homo sapiens, UniProt P23219); assay type: functional
T4 sequence (P23219 whole entry): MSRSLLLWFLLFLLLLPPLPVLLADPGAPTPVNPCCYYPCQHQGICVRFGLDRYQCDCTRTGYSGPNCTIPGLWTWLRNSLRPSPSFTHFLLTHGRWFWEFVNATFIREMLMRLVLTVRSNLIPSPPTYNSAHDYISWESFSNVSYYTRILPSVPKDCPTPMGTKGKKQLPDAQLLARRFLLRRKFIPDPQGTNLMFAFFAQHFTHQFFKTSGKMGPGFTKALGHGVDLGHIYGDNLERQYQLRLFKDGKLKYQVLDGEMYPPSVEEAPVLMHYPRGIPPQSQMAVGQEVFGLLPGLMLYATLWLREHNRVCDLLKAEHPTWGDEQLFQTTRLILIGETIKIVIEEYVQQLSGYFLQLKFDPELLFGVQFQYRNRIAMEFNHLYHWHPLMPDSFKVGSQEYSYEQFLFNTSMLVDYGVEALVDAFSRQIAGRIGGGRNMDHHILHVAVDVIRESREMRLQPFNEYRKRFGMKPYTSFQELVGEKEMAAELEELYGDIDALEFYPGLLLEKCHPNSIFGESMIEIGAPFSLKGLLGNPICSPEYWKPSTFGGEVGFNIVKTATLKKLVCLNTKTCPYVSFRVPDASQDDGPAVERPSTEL

[9] = target: T4, Prostaglandin G/H synthase 1; assay type: functional; remark: listed apart in the source
[10] = target: Sodium-dependent noradrenaline transporter (Homo sapiens, UniProt P23975)
[11] = target: Sodium-dependent dopamine transporter (Homo sapiens, UniProt Q01959)
Chain of Sodium-dependent dopamine transporter (Q01959 whole entry): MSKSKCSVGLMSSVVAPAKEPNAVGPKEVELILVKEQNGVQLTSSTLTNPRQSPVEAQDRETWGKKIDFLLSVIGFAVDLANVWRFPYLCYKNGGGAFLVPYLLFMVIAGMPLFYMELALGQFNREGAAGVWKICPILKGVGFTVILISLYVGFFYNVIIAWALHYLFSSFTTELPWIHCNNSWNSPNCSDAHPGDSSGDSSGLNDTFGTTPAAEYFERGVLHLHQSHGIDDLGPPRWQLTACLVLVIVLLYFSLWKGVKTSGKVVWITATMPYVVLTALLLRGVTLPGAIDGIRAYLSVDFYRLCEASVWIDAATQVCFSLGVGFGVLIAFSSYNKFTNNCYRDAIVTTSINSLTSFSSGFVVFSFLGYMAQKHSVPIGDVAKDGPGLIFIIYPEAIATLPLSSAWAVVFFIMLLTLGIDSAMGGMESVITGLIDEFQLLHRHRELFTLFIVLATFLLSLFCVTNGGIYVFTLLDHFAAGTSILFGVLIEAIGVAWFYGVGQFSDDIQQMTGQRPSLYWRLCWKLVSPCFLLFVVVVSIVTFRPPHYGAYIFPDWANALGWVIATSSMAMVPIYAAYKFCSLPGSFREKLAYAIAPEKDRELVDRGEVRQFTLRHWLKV

[12] = target: Sodium-dependent serotonin transporter (Homo sapiens, UniProt P31645)
Thromboxane A2 receptor [13] = target: T5, Thromboxane A2 receptor (Homo sapiens, UniProt P21731); assay type: functional, cell-based
T5 sequence (P21731 whole entry): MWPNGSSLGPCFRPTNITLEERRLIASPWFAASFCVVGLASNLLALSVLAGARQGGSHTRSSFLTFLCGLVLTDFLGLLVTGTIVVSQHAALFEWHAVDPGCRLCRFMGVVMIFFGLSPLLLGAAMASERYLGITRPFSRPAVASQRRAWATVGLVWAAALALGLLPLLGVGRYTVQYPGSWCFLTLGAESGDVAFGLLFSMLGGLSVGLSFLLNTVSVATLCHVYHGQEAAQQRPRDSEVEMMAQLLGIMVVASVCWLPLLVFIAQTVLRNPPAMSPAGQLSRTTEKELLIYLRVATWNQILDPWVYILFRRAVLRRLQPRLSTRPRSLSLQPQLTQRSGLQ

Thromboxane A2 receptor [14] = target: T5, Thromboxane A2 receptor; assay type: functional, cell-based; remark: listed apart in the source

Measured: AC50
Note: assay procedure not described here.

N[C@@H](Cc1ccc(O)cc1)C(=O)O [TYROSINE]
> 30 µM: Acetylcholinesterase | Adenosine receptor A3 | [1] | [2] | [3] | D(1A) dopamine receptor | D(3) dopamine receptor | Prothrombin | Histamine H3 receptor | [4] | [5] | Mu-type opioid receptor | [6] | [7] | [8] | [9] | [10] | [11] | [12] | Thromboxane A2 receptor [13] | Thromboxane A2 receptor [14]
